{
  "source": "paper PMC7619633",
  "about": "“Targeting of multiple tumor-associated antigens by individual T cell receptors during successful cancer immunotherapy” (Cell, 2023)",
  "key": {"[1]": {"system": "MEL5 and MEL8 TCRs, MM909.24 TIL", "experiment": "Recognition of the 9-mer BST2 peptide (MIP-1β ELISA and tetramer staining)", "assay_type": "cell-based, human", "details": "Figures S7C–S7F", "method": "In brief, tetramers were assembled by 5 consecutive 20 min incubations of PE or APC conjugated streptavidin (both from Life Technologies) with pMHC monomer at 1:4 molar ratio, on ice in the dark. Once assembled, 1:100 protease inhibitor (set 1, Merk, London, UK) and PBS was added to a working concentration of 0.1 mg mL^-1 (with regards to the pMHC component). Tetramers were stored at 4°C in the dark and used within 3 days of assembly. To remove aggregates, tetramers were centrifuged at full speed in a microfuge for 1 min immediately before staining samples. Tetramer staining was performed as previously described.[52],[53] Briefly, T cell clones, lines, TILs or Jurkat cells were pre-treated with 50 nM of the protein kinase inhibitor Dasatinib at 37°C for 10-30 min in 100 µL of FACS buffer (PBS with 2% FBS), followed by the addition of 0.5 µg tetramer (with respect to pMHC component) without washing or pre-chilling, and incubated for 30 min on ice and in the dark. Cells were then washed in PBS and stained with VIVID for 5 mins at room temperature. […]\nT cells were ‘rested’ overnight in R5 medium (R10 but with 5% FBS) to help reduce spontaneous release of chemokines and cytokines. […] T cell activation towards peptide was determined by MIP-1β release, and for cancer or healthy cell targets it was determined by TNF release. […]"}, "MM909.11 TIL": {"system": "MM909.11 TIL", "experiment": "HLA A*03:01-TAG tetramer staining of TIL from patient MM909.11", "assay_type": "binding, human", "procedure": "(§1) Staining was performed in 5 mL polystyrene test tubes (1 wash per step) or 96U well plates (3 washes per step), using 0.5-1 x10^5 cells per sample. Dead cells were detected with 2 µL of a 1:40 PBS dilution of LIVE/DEAD® Fixable Violet Dead Stain Kit (VIVID). Samples were acquired on a BD FACSCanto II (BD Biosciences, Franklin Lakes, NJ, USA) or ACEA NovoCyte 3005 with NovoSampler pro (ACEA Biosciences, Agilent, CA, US), then analyzed with FlowJo software (Tree Star Inc., Ashland, Oregon, US). Cells were gated on FSC-A versus SSC-A, single cells (FSC-A versus FSC-H), then viable cells (marker of choice versus VIVID). Cell sorting was performed on a BD FACS Aria III (BD Biosciences) by Central Biotechnology Services at Cardiff University. T cells for TCR sequencing were captured in RLT lysis buffer supplemented with 40 mM DTT or RNAprotect reagent (both from Qiagen). T cells or established cell lines sorted for culture were collected in their respective culture media supplemented with 25 µg mL^-1 of Amphotericin B (Thermo Fisher Scientific) and 10 µg mL^-1 of Ciprofloxacin (Ciproxin, Bayer, Leverkusen, Germany).\n(§2) Monomeric pMHC were generated in house as described below and used to assemble tetramers as previously described.[52] […]"}, "MM909.15 TIL": {"system": "MM909.15 TIL", "experiment": "HLA A*03:01-TAG tetramer staining of TIL from patient MM909.15", "assay_type": "binding, human", "procedure": "as §1, §2"}},
  "data": [
    {"sequence": "LLLGIGILV [BST2_9, previously described 9-mer BST2 peptide]", "values": [
      {"measurement": "Recognition by TCRs of this study", "setting": "[1]", "value": "not recognized"}
    ]},
    {"sequence": "RLSNRLLLR [TAG, HLA A*03:01-restricted peptide from cancer/testis tumor antigen gene (TAG); peptide and tetramer]", "values": [
      {"measurement": "% of TIL stained with TAG tetramer", "setting": "MM909.11 TIL; HLA A*03:01-RLSNRLLLR tetramer, MM909.11 TIL (passage-2), Fig S4N", "value": 0.67, "unit": "%"},
      {"measurement": "TAG T cells as share of the anti-melanoma response of the TIL", "setting": "MM909.11 TIL; MM909.11, from % tetramer+ cells and TIL reactivity toward autologous melanoma", "value": 17.5, "unit": "%"},
      {"measurement": "% of TIL stained with TAG tetramer", "setting": "MM909.15 TIL; HLA A*03:01-RLSNRLLLR tetramer, MM909.15 TIL (passage-2), Fig S4N", "value": 0.05, "unit": "%"},
      {"measurement": "TAG T cells as share of the anti-melanoma response of the TIL", "setting": "MM909.15 TIL; MM909.15, from % tetramer+ cells and TIL reactivity toward autologous melanoma", "value": 1.1, "unit": "%"}
    ]}
  ]
}
